Experimental data taken from patent US20150087627A1, “COMBINATION OF KINASE INHIBITORS AND USES THEREOF” (Intellikine LLC, priority 2011, published 2015).
Each block holds one compound with its values, some of them ahead of it.

How the values were obtained:
[1] = test system: KRAS/PIK3CA colon model; experiment: KRAS/PIK3CA colon model (FIG. 19); assay type: in vivo
[2] = test system: MDA-MB-361 human breast cancer xenografts; experiment: Antitumor activity, multiple dosing schedules, MDA-MB-361 xenografts (Example 41); assay type: in vivo, Mus musculus; conditions: Day 28
Procedure: Compound A was prepared in 100% PEG400 every 5-7 days and stored at approximately 25° C., shielded from light. The control article used in this study was 100% PEG400.
Low passage MDA-MB-361 cells were grown in Dulbecco's Modified Eagle's Medium (DMEM) media supplemented with 20% fetal bovine serum (FBS) and 1× penicillin/streptomycin (Invitrogen) until approximately 80% confluency was reached. Prior to injection, the cells were detached with Trypsin (Invitrogen), washed twice with phosphate buffered saline (PBS), and resuspended in RPMI (Roswell Park Memorial Institute) media (Invitrogen) without supplements. Cells were resuspended to a final concentration of 10.0×10^7 cells/mL in DMEM media without supplements, with 50% Matrigel (BD Biosciences). MDA-MB-361 cells (10.0×10^6 cells per animal in 0.1-mL injection volume) were implanted SC into the flank of female athymic nude mice. The animals used in this study are described in the following table.
4-5 week old female athymic nude mice were inoculated SC in flank (cell suspension in serum free DMEM and 50% Matrigel) with 10.0×10^6 MDA-MB-361 cells. Tumor growth was monitored with vernier calipers. The mean TV (MTV) was calculated using the formula V=W^2×L/2. When the MTV reached approximately 280 mm^3, the animals were randomized into 14 treatment groups (n=5/group). […] Tumor growth and body weight were measured twice per week. Percent TGI and body weight change were calculated on Day 28. Treatment started on Day 0 for 28 days. Antitumor activity was determined on day 28 of treatment by calculating the percent TGI using
Percent TGI=(mean tumor volume [MTV] of the control group−MTV of a treated group)/MTV of the control group×100. Equation 1
(§1) The differences in the tumor growth trends over time between pairs of treatment groups were assessed using linear mixed effects regression models. These models account for the fact that each animal was measured at multiple time points. A separate model was fit for each comparison, and the area under the curve (AUC) values for each treatment group were calculated using the predicted values from the model. The percent decrease in AUC (ΔAUC) relative to the reference group was then calculated.
(§2) Drug combinations were assessed for synergy using observed AUC values. The change in AUC relative to the control was calculated for both single agent treatment groups as well as the combination group. The interaction between the two compounds was then assessed by comparing the change in AUC observed in the combination group to the sum of the changes observed in both single agents. The results can be divided into four categories: synergistic, additive, sub-additive, and antagonistic. Further details regarding combination analyses are provided in the appendix. All p values less than 0.05 were considered significant.

[3] = test system: PTEN mutant cells; experiment: Western blot of Akt, S6 and 4EBP phosphorylation in PTEN mutant cells (FIG. 6B); assay type: cell-based
[4] = test system: HCC70 human breast cancer xenografts; experiment: Antitumor activity, multiple dosing schedules, HCC70 xenografts (Example 43); assay type: in vivo, Mus musculus; conditions: Day 35
Procedure: Compound A was prepared in 5% NMP+95% PEG400 every 5-7 days and stored at approximately 25° C., shielded from light. The control article used in this study was 5% NMP+95% PEG400. Compounds were completely dissolved in NMP by sonication followed by the addition of the appropriate volume of PEG400. The solution was vortexed and sonicated again to ensure complete mixing.
Low passage HCC70 cells (ATCC) were grown in RPMI (Life Technologies) supplemented with 10% Fetal Bovine Serum (FBS) (PAA Laboratories Pty Ltd) and 1× penicillin-streptomycin (Life Technologies) and supplied at a concentration of 5.0×10^7 cells/mL in serum-free RPMI and 50% Matrigel (BD Biosciences). HCC70 cells (5.0×10^6 cells/animal, 0.1-mL injection volume) were implanted subcutaneously (SC) into flank of female athymic nude mice. The animals used in this study are described in the following table.
Five-week old female athymic nude mice were inoculated SC in flank (cell suspension in serum free RPMI and 50% Matrigel) with 5.0×10^6 HCC70 cells. Tumor growth was monitored with vernier calipers. The mean TV (MTV) was calculated using the formula V=W^2×L/2. When the MTV reached approximately 160 to 180 mm^3, the animals were randomized into 13 treatment groups (n=5/group). […] Tumor growth and body weight were measured twice per week. Percent TGI and body weight change were calculated on Day 35. Treatment started on Day 0 for 28 days. Antitumor activity was determined by calculating the percent TGI using Equation 1: Percent TGI=(mean tumor volume [MTV] of the control group−MTV of a treated group)/MTV of the control group×100.
as §1, §2

[5] = Plasma insulin in nude mice (Example 41); assay type: in vivo, Mus musculus; conditions: 120 minutes after the last dose (Day 28)
Procedure: Insulin was measured using Mesoscale Discovery's Mouse/Rat Insulin Kit (Rockville, Md., USA). Plasma samples collected at 120 minutes post last dose were thawed on ice and reagents from the kit were brought to room temperature. 150 μL of Blocker A Solution was added to each well, the plates were covered, and then incubated on a plate shaker (300-1000 rpm) for 1 hour at room temperature. After the first incubation, the wells were washed three times with phosphate buffered saline+Tween 20 (PBS-T), and then 40 μL of 1× Detection Antibody Solution followed by 10 μL of unknown neat samples or standards were added to the wells in duplicate. The plate was then covered and incubated on a plate shaker (300-1000 rpm) for 2 hours at room temperature. Following the second incubation, the wells were washed three times with PBS-T, and then 150 μL of 1× Read Buffer T was added to each well. The plates were immediately analyzed on the SECTOR Imager using the MSD Discovery Workbench software (Meso Scale Discovery). A 4-parameter logisitic model was utilized by the software to determine the concentrations of the unknown samples based on the standard curve it generated.

SMILES: Nc1nc2cc(-c3ccc4ncc(C(=O)N5CCOCC5)n4c3)ccc2o1 [Compound A]
activity in a KRAS/PIK3CA colon model [1]: not effective | TGI ([2]; 60 mg/kg QD PO): 84.5% | TGI ([2]; 70 mg/kg QD 3on/4off PO): 76.0% | TGI ([2]; 140 mg/kg QD 3on/4off PO): 84.2% | TGI ([2]; 210 mg/kg QW PO): 64.7% | inhibition of Akt, S6, and 4EBP phosphorylation [3]: not | TGI ([4]; 70 mg/kg QD 3on/4off PO, not significantly different from control): 19.4% | TGI ([4]; 140 mg/kg QD 3on/4off PO): 41.0% | TGI ([4]; 210 mg/kg QW PO, not significantly different from control): 21.0% | TGI ([4]; 420 mg/kg QW PO): 40.8% | Mean Plasma Insulin at 2 hr. ([5]; 60 mg/kg QD): 0.7 ng/mL | Plasma Insulin Fold Over Control ([5]; 60 mg/kg QD): 1.47 fold | Mean Plasma Insulin at 2 hr. ([5]; 70 mg/kg QD 3on/4off): 1.51 ng/mL | Plasma Insulin Fold Over Control ([5]; 70 mg/kg QD 3on/4off): 3.16 fold | Mean Plasma Insulin at 2 hr. ([5]; 140 mg/kg QD 3on/4off): 2.39 ng/mL | Plasma Insulin Fold Over Control ([5]; 140 mg/kg QD 3on/4off): 5.01 fold | Mean Plasma Insulin at 2 hr. ([5]; 210 mg/kg QW): 3.96 ng/mL | Plasma Insulin Fold Over Control ([5]; 210 mg/kg QW): 8.29 fold

Mean Plasma Insulin at 2 hr. ([5]; 0.3 mg/kg QD): 3.74 ng/mL | Mean Plasma Insulin at 2 hr. ([5]; 1.0 mg/kg QD 3on/4off): 2.83 ng/mL | Mean Plasma Insulin at 2 hr. ([5]; 3.0 mg/kg QW): 5.94 ng/mL
SMILES: CC(C)n1nc(-c2ccc3oc(N)nc3c2)c2c(N)ncnc21 [Compound B]
activity in a KRAS/PIK3CA colon model [1]: not effective | TGI ([2]; 0.3 mg/kg QD PO): 71.1% | TGI ([2]; 1.0 mg/kg QD 3on/4off PO): 63.6% | TGI ([2]; 3.0 mg/kg QW PO): 52.7% | inhibition of Akt, S6, and 4EBP phosphorylation [3]: selective inhibition | TGI ([4]; 0.3 mg/kg QD PO): 36.9% | TGI ([4]; 1.0 mg/kg QD 3on/4off PO): 47.2% | TGI ([4]; 3.0 mg/kg QW PO): 35.8%
